According to US9975888B2, “Aryl linked imidazole and triazole derivatives and methods of use thereof for improving the pharmacokinetics of a drug” (MERCK SHARP & DOHME CORP., priority 2013, dated 2018):

Legend:
Type in all cases: biochemical
CYP1A2 = molecular target: T1, CYP1A2 (Homo sapiens, UniProt P05177); assay: Cocktail assay for CYPs, phenacetin O-deethylation (CYP1A2), human liver microsomes; settings: 10 μM phenacetin, 0.1 mg/mL human liver microsomes, 10 min at 37° C.; read-out: CYP IC50 (nM) 1A2
T1 construct: 0.1 mg/mL protein human liver microsomes (BD Gentest); tissue BD Gentest; host or cells: human liver microsomes
T1 sequence (P05177 1-516): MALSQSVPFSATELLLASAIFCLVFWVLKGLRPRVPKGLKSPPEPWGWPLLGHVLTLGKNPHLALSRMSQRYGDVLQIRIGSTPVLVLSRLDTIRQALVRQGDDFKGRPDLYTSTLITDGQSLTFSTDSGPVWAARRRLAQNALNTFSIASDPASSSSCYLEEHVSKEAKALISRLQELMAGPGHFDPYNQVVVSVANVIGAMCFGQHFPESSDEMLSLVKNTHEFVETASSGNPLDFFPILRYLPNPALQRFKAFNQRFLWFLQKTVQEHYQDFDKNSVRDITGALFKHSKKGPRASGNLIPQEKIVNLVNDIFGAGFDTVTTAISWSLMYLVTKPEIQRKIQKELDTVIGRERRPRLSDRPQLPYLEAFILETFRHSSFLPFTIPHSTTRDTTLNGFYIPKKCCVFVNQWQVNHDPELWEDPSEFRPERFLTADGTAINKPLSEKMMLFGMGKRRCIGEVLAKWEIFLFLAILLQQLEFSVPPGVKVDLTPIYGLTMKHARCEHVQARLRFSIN
Description: (§1) Determination of IC50 in a Cocktail Assay for CYPs 1A2, 2C9, 2C19, 2D6 and 3A4:
(§2) This assay was performed in a standard 96-well plate design. IC50 values were calculated from the percent inhibition observed for each test compound at 6 concentrations (for example, 0.0032, 0.016, 0.08, 0.4, 2 and 10 μM). The incubation substrate mix contains 10 μM phenacetin (1A2), 5 μM diclofenac (2C9), 30 μM mephenytoin (2C19), 5 μM dextromethorphan (2D6) and 2 μM midazolam (3A4), 0.1 mg/mL protein human liver microsomes (BD Gentest), 1 mM NAPDH, 3.3 mM MgCl2 and 100 mM potassium phosphate buffer (pH 7.4). The production of the metabolite of each probe substrate was determined after incubation for 10 min at 37° C. Quantitation of the metabolite peak area ratio against an internal standard (tolbutamide) was determined by LC/MS/MS analysis following acetonitrile treatment of the incubations.
(§3) Samples were analyzed in the MRM mode with a SCIEX API-4000 mass spectrometer (Applied Biosystems, Foster City, Calif.), with a Shimadzu LC-20 AD pump (Shimadzu corporation, Kyoto, JP) and a CTC PAL autosampler (Agilent Technologies, Switzerland). A Phenomenex, Luna, 5 nm, 100 A, 2.00×30 mm HPLC column was used for the separation. The mobile phases were: (A) 0.1% formic acid in water and (B) 0.1% formic acid in acetonitrile. The binary gradient was as follows.
(§4) The peak area ratio of the analyte to the internal standard was used to quantify the metabolite. The values of peak area ratios in the presence of test compound were compared to those of maximum or minimum controls and were expressed as % inhibition by interpolating between the maximum and minimum peak area ratios. Incubations with no inhibitor were defined as the maxima. The following equation was used to calculate the % inhibition: [1−[(X−Low control)/(High control−Low control)]]*100 For the IC50 calculation, SigmaPlot was used to plot the mean % inhibition versus the test compound concentrations and for non-linear regression analysis of the data. Depending on the range of data points defining the inhibition curve, the data may have been fit to the 4-parameter logistic equation.

CYP2C19 = molecular target: T2, CYP2C19 (Homo sapiens, UniProt P33261); assay: Cocktail assay for CYPs, mephenytoin 4′-hydroxylation (CYP2C19), human liver microsomes; settings: 30 μM mephenytoin, 0.1 mg/mL human liver microsomes, 10 min at 37° C.; read-out: CYP IC50 (nM) 2C19
T2 construct: 0.1 mg/mL protein human liver microsomes (BD Gentest); tissue BD Gentest; host or cells: human liver microsomes
Description: as §1
as §2, with “IC50 values were calculated from the percent inhibition observed for each test compound at 6 concentrations (for example, 0.0032, 0.016, 0.08, 0.4, 2 and 10 μM).” left out
as §3, §4

CYP3A4 [1] = molecular target: T3, CYP3A4 (Homo sapiens, UniProt P08684); assay: Cocktail assay for CYPs, midazolam 1′-hydroxylation (CYP3A4), human liver microsomes; design: 0.1 mg/mL protein human liver microsomes (BD Gentest); tissue BD Gentest; host or cells: human liver microsomes; settings: 2 μM midazolam, 0.1 mg/mL human liver microsomes, 10 min at 37° C.; read-out: CYP IC50 (nM) 3A4 (MDZ)
Description: as §1, §2, §3, §4
Target sequence in this assay (P08684 whole entry): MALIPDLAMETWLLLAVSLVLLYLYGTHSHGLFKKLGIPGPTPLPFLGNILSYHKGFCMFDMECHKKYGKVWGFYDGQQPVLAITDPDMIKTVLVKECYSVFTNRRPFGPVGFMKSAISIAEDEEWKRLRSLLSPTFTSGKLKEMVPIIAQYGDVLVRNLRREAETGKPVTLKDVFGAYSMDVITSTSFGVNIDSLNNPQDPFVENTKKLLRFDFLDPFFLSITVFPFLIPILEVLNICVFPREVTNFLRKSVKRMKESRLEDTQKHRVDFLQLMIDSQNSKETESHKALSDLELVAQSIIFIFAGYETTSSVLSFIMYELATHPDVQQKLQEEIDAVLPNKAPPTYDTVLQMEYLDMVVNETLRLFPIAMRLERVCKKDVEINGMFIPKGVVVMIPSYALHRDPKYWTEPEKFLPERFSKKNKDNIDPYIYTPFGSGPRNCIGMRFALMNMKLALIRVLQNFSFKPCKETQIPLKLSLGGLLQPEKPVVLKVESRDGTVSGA

CYP3A4 [2] = molecular target: T3, CYP3A4; assay: IC50 vs CYP3A by inhibition of lopinavir metabolism in human liver microsomes; design: 0.01 mg/mL protein human liver microsomes (BD Gentest); tissue BD Gentest; host or cells: human liver microsomes; settings: 1.5 μM lopinavir, 0.01 mg/mL human liver microsomes, 8 min at 37° C.; read-out: CYP IC50 (nM) 3A4 (LPV)
Description: Determination of IC50 vs CYP3A by Measurement of Inhibition of Lopinavir Metabolism
This assay was performed in a standard 96-well plate design. IC50 values were calculated from the percent inhibition observed for each test compound at 6 concentrations (for example, 0.098, 0.391, 1.56, 6.25, 25 and 100 nM). The incubation substrate mix contains 1.5 μM lopinavir, 0.01 mg/mL protein human liver microsomes (BD Gentest), 1 mM NAPDH, 3.3 mM MgCl2 and 100 mM potassium phosphate buffer (pH 7.4). The production of the sum of three hydroxylated metabolites (M2: 6-hydroxy lopinavir, M3: 4-hydroxy lopinavir, M4: 4-hydroxy lopinavir (epimer of M3), Kumar et al., 1999) was determined after incubation for 8 min at 37° C. Quantitation of the metabolite peak area ratio against an internal standard (tolbutamide) was determined by LC/MS/MS analysis following acetonitrile treatment of the incubations.
as §3, with “μm,” for “nm,”
Target sequence in this assay (P08684 2-503): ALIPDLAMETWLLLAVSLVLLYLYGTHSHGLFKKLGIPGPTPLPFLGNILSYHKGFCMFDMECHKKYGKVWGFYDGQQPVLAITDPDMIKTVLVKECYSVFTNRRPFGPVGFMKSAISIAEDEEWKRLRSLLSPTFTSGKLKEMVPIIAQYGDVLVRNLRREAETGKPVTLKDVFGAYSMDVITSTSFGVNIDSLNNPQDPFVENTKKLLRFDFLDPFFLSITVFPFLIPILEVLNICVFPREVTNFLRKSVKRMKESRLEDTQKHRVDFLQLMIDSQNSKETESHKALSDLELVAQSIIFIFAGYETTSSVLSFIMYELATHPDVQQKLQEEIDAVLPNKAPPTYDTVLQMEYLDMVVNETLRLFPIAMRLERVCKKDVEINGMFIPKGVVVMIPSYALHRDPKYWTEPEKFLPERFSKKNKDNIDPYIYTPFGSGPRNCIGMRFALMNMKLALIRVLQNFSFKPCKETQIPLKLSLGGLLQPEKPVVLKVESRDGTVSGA
The peak area ratio of the analyte to the internal standard was used to quantify the metabolite. The values of peak area ratios in the presence of test compound were compared to those of maximum or minimum controls and were expressed as % inhibition by interpolating between the maximum and minimum peak area ratios. Incubations with no inhibitor were defined as the maxima and with 5 μM ketoconazole were defined as the minima.
The following equation was used to calculate the % inhibition: [1−[(X−Low control)/(High control−Low control)]]*100
For the IC50 calculation, SigmaPlot was used to plot the mean % inhibition versus the test compound concentrations and for non-linear regression analysis of the data. Depending on the range of data points defining the inhibition curve, the data may have been fit to the 4-parameter logistic equation.

CYP2D6 = molecular target: T4, CYP2D6 (Homo sapiens, UniProt P10635); assay: Cocktail assay for CYPs, dextromethorphan O-demethylation (CYP2D6), human liver microsomes; settings: 5 μM dextromethorphan, 0.1 mg/mL human liver microsomes, 10 min at 37° C.; read-out: CYP IC50 (nM) 2D6
T4 construct: 0.1 mg/mL protein human liver microsomes (BD Gentest); tissue BD Gentest; host or cells: human liver microsomes
Description: as §1, §2, §3, §4

CYP2C9 = molecular target: T5, CYP2C9 (Homo sapiens, UniProt P11712); assay: Cocktail assay for CYPs, diclofenac 4′-hydroxylation (CYP2C9), human liver microsomes; settings: 5 μM diclofenac, 0.1 mg/mL human liver microsomes, 10 min at 37° C.; read-out: CYP IC50 (nM) 2C9
T5 construct: 0.1 mg/mL protein human liver microsomes (BD Gentest); tissue BD Gentest; host or cells: human liver microsomes
Description: as §1
as §2, with “IC50 values were calculated from the percent inhibition observed for each test compound at 6 concentrations (for example, 0.0032, 0.016, 0.08, 0.4, 2 and 10 μM).” left out
as §3, §4

T2 sequence (P33261 whole entry): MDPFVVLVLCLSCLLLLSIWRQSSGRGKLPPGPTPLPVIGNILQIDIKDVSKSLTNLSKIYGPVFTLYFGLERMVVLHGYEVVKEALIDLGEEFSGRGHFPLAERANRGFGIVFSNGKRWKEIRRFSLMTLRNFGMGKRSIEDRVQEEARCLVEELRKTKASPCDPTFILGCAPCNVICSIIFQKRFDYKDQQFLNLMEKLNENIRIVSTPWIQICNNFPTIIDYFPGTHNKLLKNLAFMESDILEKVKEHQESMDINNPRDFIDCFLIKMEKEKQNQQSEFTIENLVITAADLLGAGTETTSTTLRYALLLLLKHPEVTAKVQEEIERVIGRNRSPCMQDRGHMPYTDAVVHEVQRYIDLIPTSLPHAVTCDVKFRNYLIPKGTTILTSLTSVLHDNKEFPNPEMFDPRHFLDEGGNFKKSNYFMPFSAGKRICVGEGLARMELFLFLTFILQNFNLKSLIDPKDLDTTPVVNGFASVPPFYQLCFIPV
T5 sequence (P11712 whole entry): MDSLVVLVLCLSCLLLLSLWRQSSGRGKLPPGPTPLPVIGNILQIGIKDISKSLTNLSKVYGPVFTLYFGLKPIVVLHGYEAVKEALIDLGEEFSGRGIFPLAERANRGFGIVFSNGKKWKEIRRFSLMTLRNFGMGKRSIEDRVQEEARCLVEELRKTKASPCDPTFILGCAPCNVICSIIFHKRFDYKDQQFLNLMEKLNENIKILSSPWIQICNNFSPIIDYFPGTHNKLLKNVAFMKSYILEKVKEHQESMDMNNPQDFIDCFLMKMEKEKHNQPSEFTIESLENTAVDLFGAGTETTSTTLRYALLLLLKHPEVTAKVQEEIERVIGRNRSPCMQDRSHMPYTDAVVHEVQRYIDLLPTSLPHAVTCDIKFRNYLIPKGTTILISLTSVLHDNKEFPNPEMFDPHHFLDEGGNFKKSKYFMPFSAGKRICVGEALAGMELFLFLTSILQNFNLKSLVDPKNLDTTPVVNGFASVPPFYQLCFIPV
T4 sequence (P10635 whole entry): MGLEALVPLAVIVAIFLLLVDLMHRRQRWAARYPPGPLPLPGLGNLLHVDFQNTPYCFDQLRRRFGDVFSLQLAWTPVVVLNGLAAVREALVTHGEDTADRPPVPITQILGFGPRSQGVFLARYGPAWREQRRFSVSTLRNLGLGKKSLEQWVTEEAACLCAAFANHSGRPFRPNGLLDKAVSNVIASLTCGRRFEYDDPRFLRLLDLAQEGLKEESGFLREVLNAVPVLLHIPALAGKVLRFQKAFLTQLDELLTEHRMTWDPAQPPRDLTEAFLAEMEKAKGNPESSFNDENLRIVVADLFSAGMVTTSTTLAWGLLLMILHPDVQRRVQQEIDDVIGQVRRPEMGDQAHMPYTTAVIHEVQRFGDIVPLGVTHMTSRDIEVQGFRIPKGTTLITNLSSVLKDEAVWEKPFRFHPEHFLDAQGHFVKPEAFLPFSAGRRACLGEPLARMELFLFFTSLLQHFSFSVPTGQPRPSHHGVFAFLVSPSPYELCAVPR

| SMILES | IC50 (CYP1A2) | IC50 (CYP2C19) | IC50 (CYP3A4 [1]) | IC50 (CYP3A4 [2]) | IC50 (CYP2D6) | IC50 (CYP2C9) |
| --- | --- | --- | --- | --- | --- | --- |
| CN1CCN(c2ncc(S(=O)(=O)N3Cc4cccc(-c5cncn5CCc5ccc(F)cc5)c4C3)s2)CC1 [Compound 16, 5-((4-(1-(4-fluorophenethyl)-1H-imidazol-5-yl)isoindolin-2-yl)sulfonyl)-2-(4-methylpiperazin-1-yl)thiazole] | 3100 nM | 1260 nM | 13.2 nM | 9.5 nM | 360 nM | 486 nM |
| O=S(=O)(c1ccc(N2CCOCC2)nc1)N1CCc2c(cccc2-c2cncn2CCc2ccc(F)cc2)C1 [Compound 60, 4-(5-((5-(1-(4-fluorophenethyl)-1H-imidazol-5-yl)-3,4-dihydroisoquinolin-2(1H)-yl)sulfonyl)pyridin-2-yl) morpholine] | > 10000 nM | 53 nM | 6.2 nM | 1.8 nM | 2210 nM | 1350 nM |
| CC(=O)Nc1ncc(S(=O)(=O)NCc2ccc(-c3cncn3CCc3ccc(F)cc3)cc2)s1 [Compound 12, N-(5-(N-(4-(1-(4-fluorophenethyl)-1H-imidazol-5-yl)benzyl)sulfamoyl)thiazol-2-yl)acetamide] | 2400 nM | 300 nM | 8.7 nM | 5 nM | 675 nM | 49 nM |
| O=S(=O)(c1ccc(N2CCN(CCO)CC2)nc1)N1CCCC1c1ccccc1-c1cncn1CCc1ccc(F)cc1 (single isomer, unassigned) [Compound 35a, (R or S)-2-(4-(5-((2-(2-(1-(4-fluorophenethyl)-1H-imidazol-5-yl)phenyl)pyrrolidin-1-yl)sulfonyl)pyridin-2-yl)piperazin-1-yl) ethanol] | > 10000 nM | > 10000 nM | 8.1 nM | 4.2 nM | 4600 nM | 8600 nM |
| CC(=O)Nc1ncc(S(=O)(=O)N2CCCC2c2ccccc2-c2cncn2C)s1 (stereo not shown) [Compound 30, N-(5-((2-(2-(1-methyl-1H-imidazol-5-yl)phenyl)pyrrolidin-1-yl)sulfonyl)thiazol-2-yl) acetamide] | > 10000 nM | > 10000 nM | 18.8 nM | 37.7 nM | > 10000 nM | > 10000 nM |
| O=S(=O)(c1ccc(NCC(O)C2CC2)nc1)N1CCCC1c1ccccc1-c1cncn1CCc1ccc(F)cc1 (single isomer, unassigned) [Compound 34a, 1-cyclopropyl-2-((5-(((R or S)-2-(2-(1-(4-fluorophenethyl)-1H-imidazol-5-yl)phenyl)pyrrolidin-1-yl)sulfonyl)pyridin-2-yl)amino)ethanol] | 7020 nM | 2680 nM | 10.4 nM | 4.5 nM | 1670 nM | 2620 nM |

Now from value to molecule:

| IC50 (CYP1A2) | IC50 (CYP2C19) | IC50 (CYP3A4 [1]) | IC50 (CYP3A4 [2]) | IC50 (CYP2D6) | IC50 (CYP2C9) | SMILES |
| --- | --- | --- | --- | --- | --- | --- |
| > 10000 nM | 4800 nM | 41.2 nM | > 100 nM | 3880 nM | 9840 nM | O=C(c1cccnc1)N1CCCC1c1cccc(-c2cncn2CCc2ccc(F)cc2)c1 (single isomer, unassigned) [Compound 48b, (R or S)-(2-(3-(1-(4-fluorophenethyl)-1H-imidazol-5-yl)phenyl)pyrrolidin-1-yl) (pyridin-3-yl) methanone] |
| 99 nM | 357 nM | 5.9 nM | 5.3 nM | 348 nM | 65 nM | CC(=O)Nc1ncc(S(=O)(=O)NCc2cccc(-c3cncn3CCc3ccc(F)cc3)c2)s1 [Compound 13, N-(5-(N-(3-(1-(4-fluorophenethyl)-1H-imidazol-5-yl)benzyl)sulfamoyl)thiazol-2-yl)acetamide] |
| > 10000 nM | 7790 nM | 14.3 nM |  | 4220 nM | > 10000 nM | CN1CCCC1c1ccccc1-c1cncn1CCc1ccc(F)cc1 (single isomer, unassigned) [Compound 45a, (R or S)-1-(4-fluorophenethyl)-5-(2-(1-methylpyrrolidin-2-yl)phenyl)-1H-imidazole] |
| > 10000 nM | 3830 nM | 30.1 nM | 29.6 nM | 4700 nM | 9740 nM | O=C(C1CCOCC1)N1CCCC1c1cccc(-c2cncn2CCc2ccc(F)cc2)c1 (single isomer, unassigned) [Compound 49a, (R or S)-(2-(3-(1-(4-fluorophenethyl)-1H-imidazol-5-yl)phenyl)pyrrolidin-1-yl)(tetrahydro-2H-pyran-4-yl)methanone] |
| > 10000 nM | > 10000 nM | 22.8 nM |  | 2480 nM | > 10000 nM | CN1CCCC1c1ccccc1-c1cncn1CCc1ccc(F)cc1 (single isomer, unassigned) [Compound 45b, (R or S)-1-(4-fluorophenethyl)-5-(2-(1-methylpyrrolidin-2-yl)phenyl)-1H-imidazole] |
